Results from patent publication US8933123B2, “Polymorphic forms of O-desmethyl-venlafaxine succinate” (Cadila Healthcare Limited, priority 2010, dated 2015).

Test: Storage stability of packed crystalline forms (water content and polymorphic conversion by X-ray powder diffraction)
Format: physicochemical
Source text: The crystalline form of O-desmethyl-venlafaxine succinate obtained in example-5 or example-6 were stored under nitrogen atmosphere and packed in a non-permeable bag tied with a thread, keeping primary packing inside a black color polyethylene bag containing oxygen busters and sealing it, placing above the non-permeable bag inside a triple laminated bag containing oxygen busters and sealing it, and placing the sealed triple laminated bag inside a closed high density polyethylene (HDPE) container.

[1] = storage for 3 months at 25° C. and a relative humidity of 60%
[2] = storage for 3 months at 40° C. and a relative humidity of 75%

CN(C)CC(c1ccc(O)cc1)C1(O)CCCCC1.O=C(O)CCC(=O)O (centres unmarked) [Form “Z1”, O-desmethyl-venlafaxine succinate]
crystalline Form-I or Form-II detected by X-ray powder diffraction after storage [1]: no detectable amount of crystalline Form-I or Form-II | water content after storage [1]: ≤ 1.5% | crystalline Form-I or Form-II detected by X-ray powder diffraction after storage [2]: no detectable amount of crystalline Form-I or Form-II | water content after storage [2]: ≤ 1.5%

CN(C)CC(c1ccc(O)cc1)C1(O)CCCCC1.O=C(O)CCC(=O)O (centres unmarked) [Form “Z”, O-desmethyl-venlafaxine succinate]
crystalline Form-I or Form-II detected by X-ray powder diffraction after storage [1]: no detectable amount of crystalline Form-I or Form-II | water content after storage [1]: ≤ 3.0% | crystalline Form-I or Form-II detected by X-ray powder diffraction after storage [2]: no detectable amount of crystalline Form-I or Form-II | water content after storage [2]: ≤ 3.0%
